# Laboratory results reported in patent US8877266B2, “Supercritical CO2 liquorice extract anti-microbial and anti-inflammatory isolates and products made there from” (Tom's of Maine, Inc., priority 2007, dated 2014).
# Assays:
# [1] = tested on: Porphyromanas gingivalis ATCC 33277; test: Broth microdilution minimum inhibitory concentration, Porphyromonas gingivalis; format: cell-based; conditions: for MIC: Porphyromonas gingivalis, ATCC33277, read-out: MIC against Porphyromonas gingivalis
# Method: (§1) For anaerobes, 190 μL of sterile, pre-reduced Wilkins Chalgren (WC) anaerobe broth with 0.075% cysteine were added to the first well of the test series in a 96 well plate, followed by 100 μL in each of four additional test wells. Ten μL of filter-sterilized stock solution of licorice CO2 extract, prepared at 40 mg/mL in ethanol, was added to the first well of the series. Contents of the first well were mixed thoroughly and serially diluted (1:1) with the remaining four wells in the series; 100 μL were discarded from the final well in the series. Suspensions of Porphyromanas gingivalis ATCC 33277 or Prevotella. intermedia ATCC 25611, diluted to approximately 1×10^6 cfu (colony forming units) per mL, were added to the test wells in 100 μL quantities. Appropriate growth promotion and sterility controls were included. Plates were incubated at 37° C. anaerobically, until turbidity in the growth control well was observed. The MIC (minimum inhibitory concentration) was recorded as the lowest concentration inhibiting growth of the test organism as viewed with the unaided eye. Streptococcus mutans ATCC 25175 was tested in similar fashion, with Tryptic Soy Broth (TSB) as the test medium and incubation of plates at 37° C. with 5% CO2. Staphylococcus aureus ATCC 6538 was tested using Tryptic Soy Broth (TSB) as the test medium and incubation of plates at 37° C. Aspergillus niger ATCC 16404 was tested, with Tryptic Soy Broth (TSB) as the test medium and incubated at room temperature (25° C.).
# (§2) Broth microdilution minimum inhibitory concentration was performed as follows. Ten μL of filter-sterilized stock solution of pure compound, licoricidin or licorisoflavan A, prepared at 1 mg/mL in ethanol, was added to the first well of the series. Contents of the first well were mixed thoroughly and serially diluted (1:1) with the remaining seven wells in the series; 100 μL were discarded from the final well in the series. Suspensions of Porphyromanas gingivalis ATCC 33277 or Prevotella. intermedia ATCC 25611, diluted to approximately 1×10^6 cfu (colony forming units) per mL, were added to the test wells in 100 μL quantities. Appropriate growth promotion and sterility controls were included. Plates were incubated at 37° C. anaerobically, until turbidity in the growth control well was observed. The MIC (minimum inhibitory concentration) was recorded as the lowest concentration inhibiting growth of the test organism as viewed with the unaided eye. Streptococcus mutans ATCC 25175 was tested in similar fashion, with Tryptic Soy Broth (TSB) as the test medium and incubation of plates at 37° C. with 5% CO2.
# [2] = tested on: Streptococcus mutans ATCC 25175; test: Broth microdilution minimum inhibitory concentration, Streptococcus mutans; format: cell-based; conditions: for MIC: Streptococcus mutans, ATCC25175, read-out: MIC against Streptococcus mutans
# Method: as §1, §2
# [3] = tested on: Prevotella intermedia ATCC 25611; test: Broth microdilution minimum inhibitory concentration, Prevotella intermedia; format: cell-based; conditions: for MIC: Prevotella intermedia, ATCC25611, read-out: MIC against Prevotella intermedia
# Method: as §1, §2
# [4] = Anti-inflammatory activity of the isolated components
# [5] = broth microdilution, anaerobic 37° C., mode of triplicate
# [6] = broth microdilution, TSB, 37° C. with 5% CO2, mode of triplicate
Compound,"MIC [1, 5]","MIC against Porphyromonas gingivalis (Chlorhexidine, Table 1A) ([1]; column head prints no unit)","MIC [2, 6]","MIC against Streptococcus mutans (Chlorhexidine, Table 1A) ([2]; column head prints no unit)","MIC [3, 5]","MIC against Prevotella intermedia (Chlorhexidine, Table 1A) ([3]; column head prints no unit)",antimicrobial activity (MIC) against Porphyromonas gingivalis [1],activity as anti-inflammatory agents [4],antimicrobial activity (MIC) on Streptococcus mutans [2],"MIC against Porphyromonas gingivalis [1, 5]","MIC against Streptococcus mutans [2, 6]","MIC against Prevotella intermedia [3, 5]"
"[H]/N=C(\N/C(=N/[H])NCCCCCCNC(=N)NC(=N)Nc1ccc(Cl)cc1)Nc1ccc(Cl)cc1 [Chlorhexidine, reference compound]",6.25 µg/mL,6.25,1.56 µg/mL,1.56,3.12 µg/mL,3.125,,,,,,
"COc1c(CC=C(C)C)c(O)cc2c1C[C@H](c1ccc(O)c(CC=C(C)C)c1O)CO2 [Licoricidin, licoricidin]",0.39 µg/mL,,3.12 µg/mL,,0.78 µg/mL,,0.39 µg/mL,excellent activity,3.12 µg/mL,,,
licorisoflavan A,,,,,,,,excellent activity,3.12 µg/mL,0.78 µg/mL,3.125 µg/mL,1.56 µg/mL
